Experimental data from PubChem BioAssay AID1996.
≈ marks a conversion by molar mass, not a printed value.

Conditions: buffer; pH 7.4; 200.0 µM

Row | SMILES | solubility kinetic
1 | Clc1ccc(N=c2ssnc2Cl)cc1 | 2.7 µg/mL (≈ 10.3 µM)
2 | O=C(Cc1ccccc1)NCC(=O)N1CCCCC1 | > 39.1 µg/mL
3 | CCN(C(=O)c1cccnc1SC)C12CC3CC(CC(C3)C1)C2 | 2.3 µg/mL (≈ 6.96 µM)
4 | CCCOc1ccc(S(=O)(=O)N2CCN(C)CC2)c2ccccc12 | 39.2 µg/mL (≈ 112 µM)
5 | CCCOc1ccc(/C=C/C(=O)N2CCOCC2)cc1 | > 41.3 µg/mL
6 | CC(C)Cc1ccc(C(C)NC(=O)c2ccc(=O)[nH]c2)cc1 (stereo not drawn) | 10 µg/mL (≈ 33.5 µM)
7 | CCc1ccccc1NC(=O)CN(C)C(=O)COC(=O)c1ccco1 | > 51.7 µg/mL
8 | NS(=O)(=O)c1ccc(CCNc2ccccc2[N+](=O)[O-])cc1 | 2.9 µg/mL (≈ 9.02 µM)
9 | O=C(CN1CCCCCC1)Nc1ccc([N+](=O)[O-])cc1Br | 3 µg/mL (≈ 8.42 µM)
10 | COC(=O)c1ccc(COc2ccc(C#N)cc2)o1 | 7 µg/mL (≈ 27.2 µM)
11 | Cc1cccc(Cn2c(C)nc3ccc([N+](=O)[O-])cc3c2=O)c1 | 3.6 µg/mL (≈ 11.6 µM)
12 | O=C(CNC(=O)c1ccccc1)NCC(c1ccco1)N1CCCC1 (stereo not drawn) | > 51.2 µg/mL
13 | COc1ccc(NC(=O)CC2SC(N3CCCC3)=NC2=O)cc1Cl (stereo not drawn) | 6.8 µg/mL (≈ 18.5 µM)
14 | Cc1cc(=O)[nH]c2ccc(S(=O)(=O)Nc3ccc(O)cc3)cc12 | > 49.6 µg/mL
15 | COc1ccccc1OCCn1c(SCC(N)=O)nc2ccccc21 | 45.4 µg/mL (≈ 127 µM)
16 | O=C(O)CSc1nc2c(c(C(F)(F)F)n1)CCCC2 | > 43.8 µg/mL
17 | O=C(NCCCSc1ccccc1)c1cccnc1 | > 40.9 µg/mL
18 | CCc1ccccc1NC(=O)c1ccc2c(c1)CCN2S(C)(=O)=O | 0.8 µg/mL (≈ 2.32 µM)
19 | Cc1cccc(NC(=O)COC(=O)c2cc(C)n(C3CC3)c2C)c1 | 9.7 µg/mL (≈ 29.7 µM)
20 | O=C(Nc1ccnc(-c2ccncc2)n1)c1ccc(F)cc1 | 0.4 µg/mL (≈ 1.36 µM)
21 | O=C(CCl)N(c1ccccc1)C1CCCCC1 | 36.6 µg/mL (≈ 145 µM)
22 | CCOc1ccc2[nH]c3c(NCCN(C)C)ncnc3c2c1 | > 44.9 µg/mL
23 | N=c1oc2ccccc2cc1C(=O)Nc1ccccc1 | 0.6 µg/mL (≈ 2.27 µM)
24 | CC1=CC(=O)C(C(C)C)=C/C1=N/OS(=O)(=O)c1ccccc1 | 7.9 µg/mL (≈ 24.7 µM)

Row | SMILES | solubility kinetic
25 | CN(Cc1ccccc1)C(=O)CN1C(=O)NC2(CCCC2)C1=O | > 47.3 µg/mL
26 | Cc1ccc(S(=O)(=O)N2CCCC(C(=O)NC3CC3)C2)cc1 (stereo not drawn) | 46.2 µg/mL (≈ 143 µM)
27 | Cc1cc(/C=C2\SC(=S)NC2=O)c(C)[nH]1 | > 35.7 µg/mL
28 | O=C(c1ccc([N+](=O)[O-])cc1)c1cc2ccc(O)cc2oc1=O | 2 µg/mL (≈ 6.43 µM)
29 | O=[N+]([O-])c1ccc(CNc2cccc(Cl)c2)s1 | 6.3 µg/mL (≈ 23.4 µM)
30 | CN1C(=O)NC(c2ccccc2[N+](=O)[O-])C2=C1CC(C)(C)CC2=O (stereo not drawn) | 39.4 µg/mL (≈ 120 µM)
31 | CCCCc1c(O)c2cccc3c2n(c1=O)CCC3 | 35.2 µg/mL (≈ 137 µM)
32 | Cc1ccc(OCc2ccc(C(=O)Nc3cc(C)on3)o2)c([N+](=O)[O-])c1 | 1.4 µg/mL (≈ 3.92 µM)
33 | O=C(CCCc1c[nH]c2ccccc12)Nc1ncccc1O | 35.9 µg/mL (≈ 122 µM)
34 | CC(=O)NCCc1nc2ccccc2n1CCOc1ccccc1C | > 50.6 µg/mL
35 | CC1(C)CC(=O)C(CC(=O)N2CCC(Cc3ccccc3)CC2)C(=O)C1 | > 53.3 µg/mL
36 | CCc1cccc(C)c1NS(=O)(=O)c1cccs1 | 14.6 µg/mL (≈ 51.9 µM)
37 | FC(F)(F)c1cccc(NC(=S)N2CCCCCC2)c1 | 22.3 µg/mL (≈ 73.8 µM)
38 | COCC(=O)N(Cc1cc2cc(C)ccc2[nH]c1=O)c1cccc(C)c1C | 12.3 µg/mL (≈ 33.7 µM)
39 | O=C1/C(=C/c2cccs2)SC(=S)N1c1cccc(O)c1 | 1 µg/mL (≈ 3.13 µM)
40 | OCCC1CN(CC#Cc2ccccc2)CCN1C1CCCC1 (stereo not drawn) | > 46.9 µg/mL
41 | Cc1cc(C)c(S(=O)(=O)c2ccc(C(C)(C)C)cc2)c(Cl)n1 | < 0.7 µg/mL
42 | COc1cccc(/C=C/c2ccc3cccc(O)c3n2)c1 | 0.7 µg/mL (≈ 2.52 µM)
43 | COc1cc(/C=C/C(=O)OCC(=O)NCc2ccc3c(c2)OCO3)cc(OC)c1OC | 4.3 µg/mL (≈ 10 µM)
44 | CCCCCCCc1c(C#N)c(N)[nH]c(=S)c1C#N | 31.5 µg/mL (≈ 115 µM)
45 | O=C(COC(=O)c1cc[n+]([O-])cc1)Nc1ccc(Cl)cc1Cl | > 51.2 µg/mL
46 | O=C(COc1ccc(Cl)cc1)OCC(=O)N1CCOCC1 | > 47.1 µg/mL
47 | Cn1cnc(S(=O)(=O)N2CCN(c3ccccc3)CC2)c1 | 34.3 µg/mL (≈ 112 µM)
48 | Cc1ccc(Cl)cc1NC(=O)NCc1cccnc1 | 18.5 µg/mL (≈ 67.1 µM)

Row | SMILES | solubility kinetic
49 | CC(C)N(C(=O)Cn1c(=O)oc2ccccc21)c1ccccc1 | 0.7 µg/mL (≈ 2.26 µM)
50 | NS(=O)(=O)c1cc2c(cc1Cl)NC=NS2(=O)=O | > 44.4 µg/mL
51 | CC(=O)Nc1ccc(NC(C)=O)c(NC2OCC(O)C(O)C2O)c1 (stereo not drawn) | > 50.9 µg/mL
52 | COc1ccc(OC)c(Nc2ncnc3sccc23)c1 | 42.2 µg/mL (≈ 147 µM)
53 | CCOc1ccccc1C(=O)NCC(=O)N(C)Cc1ccccc1C | > 51.1 µg/mL
54 | O=C1CCC(C(=O)OCC(=O)Nc2cc(Cl)ccc2F)=NN1 | > 49.2 µg/mL
55 | CCOC(=O)/C(C#N)=C\c1ccc(OC)c(OC)c1 | 2.4 µg/mL (≈ 9.19 µM)
56 | Cc1cccc(N(CC(=O)N2CCCCCC2)S(C)(=O)=O)c1 | > 48.7 µg/mL
57 | COc1ccccc1NC(=S)N1CCCc2ccccc21 | 22.9 µg/mL (≈ 76.7 µM)
58 | COc1ccccc1NC(=O)CCSc1nc(C)cs1 | > 46.3 µg/mL
59 | O=C(COC(=O)C1(c2ccc(Cl)cc2)CCCC1)NCc1ccco1 | 20.7 µg/mL (≈ 57.2 µM)
60 | CC1CC(C)CN(C(=O)Nc2ccccc2F)C1 (stereo not drawn) | 15 µg/mL (≈ 59.9 µM)
61 | O=C1CCC([N+](=O)[O-])C(c2ccccc2F)N1 (stereo not drawn) | > 35.7 µg/mL
62 | O=C(CCN1CCN(c2ccccc2F)CC1)Nc1ccc(F)cc1 | 10.4 µg/mL (≈ 30.1 µM)
63 | O=C(NC(=S)NNC(=O)c1cccs1)c1ccccc1 | > 45.8 µg/mL
64 | Cc1cc(NCc2ccccc2)c2ccccc2n1.Cl | > 42.7 µg/mL
65 | N/C(COc1cccc(Cl)c1)=N\O | 20.1 µg/mL (≈ 100 µM)
66 | O=C(NCc1ccccc1)NC12CC3CC(CC(C3)C1)C2 | 2.6 µg/mL (≈ 9.14 µM)
67 | O=C(/C=C/c1ccc(Cl)cc1)OCC(=O)c1ccc[nH]1 | 2.2 µg/mL (≈ 7.59 µM)
68 | COc1ccc(OC)c(NC(=O)CC(NC(C)=O)c2ccccc2)c1 (stereo not drawn) | 45.3 µg/mL (≈ 132 µM)
69 | O=S(=O)(Nc1ccc(Br)cn1)c1cccs1 | 42.4 µg/mL (≈ 133 µM)
70 | CCCCNC(=O)c1ccc(CS(=O)(=O)Cc2ccccc2F)o1 | > 53 µg/mL
71 | Cn1cnc([N+](=O)[O-])c1NCc1ccccc1 | 33.5 µg/mL (≈ 144 µM)
72 | CCc1ccc2nc(NC(=O)CN3C(=O)NC4(CCCC4)C3=O)sc2c1 | 2.6 µg/mL (≈ 6.98 µM)

Row | SMILES | solubility kinetic
73 | O=C(COC(=O)/C=C/c1ccc(OC(F)F)cc1)NC1CCCCCC1 | 4.6 µg/mL (≈ 12.5 µM)
74 | CCCCN(CC)CCNC(=O)c1cc2c(=O)[nH]c3ccccc3c2n1C | 43.9 µg/mL (≈ 119 µM)
75 | CC(NC(=O)CSc1ncccc1C(=O)O)C1CC2CCC1C2 (stereo not drawn) | > 50.2 µg/mL
76 | CC(C)c1ccc(N2C(=O)C(Cl)=C(N3CCOCC3)C2=O)cc1 | 9.2 µg/mL (≈ 27.5 µM)
77 | Cc1sc2nc(SCC(=O)Nc3cccc(S(N)(=O)=O)c3)[nH]c(=O)c2c1C | 6 µg/mL (≈ 14.1 µM)
78 | Cc1onc(-c2ccccc2)c1C(O)c1ccc(F)cc1 (stereo not drawn) | > 42.5 µg/mL
79 | COC(=O)c1scc(C)c1NS(=O)(=O)c1ccc(NC(C)=O)cc1 | > 55.3 µg/mL
80 | O=C(Nc1cc2c3c(c1)CC(=O)N3CCC2)C1CCCCC1 | > 44.8 µg/mL
81 | COc1cccc(/C=C/C(=O)OCC(=O)Nc2ccc(Cl)cn2)c1 | < 0.4 µg/mL
82 | O=C(Nc1c[nH]c(=O)[nH]c1=O)c1ccccc1Br | > 46.5 µg/mL
83 | Cc1ccc(C(C)NC(=O)C2CCCC2)cc1C (stereo not drawn) | 31.4 µg/mL (≈ 128 µM)
84 | O=c1oc(-c2ccc(Br)cc2)nc2ccccc12 | < 0.6 µg/mL
85 | CC(=O)Nc1ccc(OCC(=O)NC(C)c2ccc(F)cc2)cc1 (stereo not drawn) | > 49.6 µg/mL
86 | CC(C)CC(=O)Nc1ccc(C(=O)Nc2cccc(O)c2)cc1 | 26.7 µg/mL (≈ 85.5 µM)
87 | COC(=O)c1sc(-c2ccc(Cl)cc2)cc1NC(=O)COCC(=O)O | 28.1 µg/mL (≈ 73.2 µM)
88 | Cc1ccc(N(C(C)C(=O)N2CCCC2)S(C)(=O)=O)cc1 (stereo not drawn) | > 46.6 µg/mL
89 | O=C(Cc1ccc(Cl)cc1)Nc1ccc(Br)cn1 | 1.4 µg/mL (≈ 4.3 µM)
90 | CCn1cc(C(c2ccccc2)C(C(C)=O)[N+](=O)[O-])c2ccccc21 (stereo not drawn) | 4.8 µg/mL (≈ 14.3 µM)
91 | CCOC(=O)c1sc(NC(=O)CCN2C(=O)C3CCCCC3C2=O)cc1C (stereo not drawn) | 15 µg/mL (≈ 38.2 µM)
92 | O=C(OCC(=O)N1CCC(Cc2ccccc2)CC1)c1ccccc1O | 2.2 µg/mL (≈ 6.22 µM)
93 | Cc1ccsc1C(=O)Nc1nccs1 | > 33.6 µg/mL
94 | CCC(=O)c1cn(CC(=O)Nc2ccc(OC)cc2)c2ccccc12 | < 0.4 µg/mL
95 | COCCNc1nnc(Cc2ccc(OC)c(OC)c2)c(=O)[nH]1 | > 48.1 µg/mL
96 | N#C/C(=C\c1ccc[nH]1)C(=O)NCC1CCCO1 (stereo not drawn) | > 36.8 µg/mL

Row | SMILES | solubility kinetic
97 | O=C(O)CN1C(=O)S/C(=C\c2ccc3c(c2)OCO3)C1=O | 41 µg/mL (≈ 133 µM)
98 | O=C(Oc1c(-c2ccccc2)c(=O)n2c3c(cccc13)CC2)c1ccc(Cl)cc1 | < 0.9 µg/mL
99 | CCCCOc1ccc(C(=O)NCC(=O)NC2CCCCC2)cc1 | 4.7 µg/mL (≈ 14.1 µM)
100 | COc1ccc(C(C)=O)cc1COC(=O)c1cccnc1Cl | 5.7 µg/mL (≈ 17.8 µM)
101 | Cc1ccccc1C(=O)N1CCC(C(=O)OCc2ccccn2)CC1 | > 50.8 µg/mL
102 | O=C(NCCCn1ccnc1)c1ccc(Cl)cc1 | > 39.6 µg/mL
103 | Cn1c2ccc(F)cc2c2nc3ccccc3nc21 | 0.7 µg/mL (≈ 2.79 µM)
104 | CCOCCn1c(N2CCCC2)nc2c1c(=O)n(C)c(=O)n2C | > 48.2 µg/mL
105 | O=c1[nH]c(=O)n(-c2ccc(F)cc2)c(O)c1/C=C1\C=Nc2ccccc21 | 1.9 µg/mL (≈ 5.44 µM)
106 | COc1ccc(OC)c(S(=O)(=O)N2CCNCC2)c1 | 38.1 µg/mL (≈ 133 µM)
107 | [Br-].c1ccc(Cc2cc[n+](Cc3ccccn3)cc2)cc1 | > 51.2 µg/mL
108 | O=[N+]([O-])c1ccc(Sc2n[nH]c(-c3ccncc3)n2)nc1 | > 45 µg/mL
109 | O=C(Nc1ccc(Cl)cc1)N1CCOC12CCCCC2 | > 44.2 µg/mL
110 | CCc1nc2sccc2c(=O)[nH]1 | > 27 µg/mL
111 | O=C(O)C1CC=C(Cl)CC1C(=O)NC1CCCCC1 (stereo not drawn) | > 42.9 µg/mL
112 | CNc1snc(C)c1C(=O)OC(C)C(=O)Nc1ccc(F)cc1 (stereo not drawn) | > 50.6 µg/mL
113 | C=CCn1c(O)c(C(C)=NCCc2c[nH]c3ccccc23)c(=O)[nH]c1=O | 33.5 µg/mL (≈ 95.1 µM)
114 | COCCCNC(=O)c1ccc(-c2csc(C)n2)cc1 | > 43.6 µg/mL
115 | Cc1cccc(NC(=O)COc2ccc3c(c2)CCC3)n1 | 2.4 µg/mL (≈ 8.5 µM)
116 | CC(=O)NC(CC(=O)O)c1ccc([N+](=O)[O-])cc1 (stereo not drawn) | > 37.8 µg/mL
117 | CC1CCCCC12NC(=O)N(CC(=O)OCC(=O)Nc1ccc(F)cc1[N+](=O)[O-])C2=O (stereo not drawn) | 7.5 µg/mL (≈ 17.2 µM)
118 | CCN1C(=O)c2cccc3c(S(=O)(=O)N4CCNCC4)ccc1c23 | > 51.8 µg/mL
